Type in all cases: in vivo
For test [1], the system named is Aulacophora femoralis. Kind of test: Pest control test of Aulacophora femoralis, cucumber leaf disk foliar spray. The method, then:
Test Example 4 Pest Control Test of Aulacophora femoralis
A leaf disk having a diameter of 2.8 cm was cut out from a cucumber in pot culture, and a drug solution of the compound of the present invention at a predetermined concentration, which had been prepared so as to be a 50% acetone water (0.05% Tween20 available), was sprayed to the leaf disk. After an air drying process, adults were released thereto. Thereafter, the adults were left to stand in a thermostatic chamber (16 hours of light period-8 hours of dark period) at 25° C. […] Test in duplicate.
Mortality of adults(%)={number of dead adults/(number of survived adults+number of dead adults)}×100

Test [2] concerns Frankliniella occidentalis. As to the kind of experiment: Pest control test of Frankliniella occidentalis, kidney bean leaf disk foliar spray. The conditions noted are these: Frankliniella occidentalis, foliar. In outline: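 Kidney bean leaf disks (2.8 cm) sprayed with compound in 50% acetone water with 0.05% Tween20, air-dried, then infested with first instar larvae. Held at 25° C, 16 h light/8 h dark; larval mortality (%) calculated from dead versus total larvae, in duplicate.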

In test [3] the test system is Trigonotylus caelestialium. Kind of test: Pest control test of Trigonotylus caelestialium, wheat seedling dipping. The settings on record: Trigonotylus caelestialium. The essentials:
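Wheat seedlings (4 days post-sowing) dipped 30 s in compound in 50% acetone water with 0.05% Tween20, air-dried, then exposed to two second-instar larvae in a lidded glass tube at 25° C, water supplied from below. Larval mortality (%) = dead/(dead+survived)×100.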

In test [4] the test system is Nilaparvata lugens exhibiting drug resistance to imidacloprid. As to the kind of experiment: Foliar spray test, Nilaparvata lugens exhibiting drug resistance to imidacloprid. The conditions noted are these: 144 h, read-out: mortality of larvae. The method, then:
Test Example 16 Pest Control Test of Nilaparvata lugens
A drug solution of the compound of the present invention at a predetermined concentration, which had been prepared so as to be a 50% acetone water (0.05% Tween20 available), was foliar sprayed to a rice seedling in pot culture. […] Thereafter, the larvae were left to stand in a thermostatic chamber (16 hours of light period-8 hours of dark period) at 25° C. […] Test in duplicate.
(§1) Mortality of larvae(%)={number of dead larvae/(number of survived larvae+number of dead larvae)}×100
Further, for the origin of test pests, insects of Nilaparvata lugens collected outdoors within the Fukuoka prefecture in 2005 were used.

Test [5] deals with Sogatella furcifera exhibiting drug resistance to fipronil. Kind of test: Foliar spray test, Sogatella furcifera exhibiting drug resistance to fipronil. The conditions noted are these: 96 h, read-out: mortality of larvae. The method, then: Test Example 17 Pest Control Test of Sogatella furcifera
A drug solution of the compound of the present invention at a predetermined concentration, which had been prepared so as to be a 10% acetone water (0.05% Tween20 available), was foliar sprayed to a rice seedling in pot culture. […] Thereafter, the larvae were left to stand in a thermostatic chamber (16 hours of light period-8 hours of dark period) at 25° C. […] Test in duplicate.
as §1
Further, for the origin of test pests, insects of Sogatella furcifera collected outdoors within the city of Odawara in 2010 were used.

In test [6] the test system is Nilaparvata lugens exhibiting drug resistance to imidacloprid. The settings on record: soil irrigation. The procedure: Test Example 18 Pest Control Test of Drug-Resistant Nilaparvata lugens
A rice seedling in pot culture was subjected to soil irrigation treatment with a drug solution of the compound of the present invention at a predetermined concentration, which had been prepared so as to be a 10% acetone water. […] Thereafter, the larvae were left to stand in a thermostatic chamber (16 hours of light period-8 hours of dark period) at 25° C. […] The test was performed in duplicate.
as §1
Further, for the origin of test pests, bugs collected outdoors within the Kumamoto prefecture in 2007 as the drug resistant Nilaparvata lugens, and bugs collected within the Kagoshima prefecture and then successively reared indoors for a long time as the imidacloprid susceptible populations of Nilaparvata lugens were used.

Test [7] concerns housefly instar larvae. As to the kind of experiment: Pest control test of housefly instar larvae, treated bait. The settings on record: Musca domestica, read-out: mortality of larvae, chrysalises and adults. The procedure:
Test Example 22 Pest Control Test of Housefly Instar Larvae
Compound 1-20 was blended with an extremely small amount of DMSO, and then the resulting mixture was dissolved in deionized water to adjust the drug solution. 10 ml of the drug solution adjusted to be 30 ppm was added to 10 g of powder in which wheat bran, MF feed (Oriental Yeast Co., Ltd.) and dry yeast had been mixed in a ratio of 25:5:1, and the mixture was mixed well to prepare a bait for housefly instar larvae. A 50 ml Falcon tube was slightly filled with the bait including the compound, and 20 eggs were released thereto. The mouth of the Falcon tube was covered with a mesh-topped lid, and the tube was allowed to stand at 25° C. Twenty days after the drug treatment, the numbers of instar larvae, chrysalises and adults were measured, and the mortality of larvae, chrysalises and adults was calculated by the following equation. The test was performed by repeating each treatment twice.
Mortality of larvae,chrysalises and adults(%)={number of dead larvae,chrysalises and adults/(number of survived larvae,chrysalises and adults+number of dead larvae,chrysalises and adults)}×100

The subject of test [8] is Haemaphysalis longicornis. As to the kind of experiment: Pest control test of Haemaphysalis longicornis on the body surface of a dog. The settings on record: 72 h, read-out: mortality of mites. The method, then: Test Example 25 Pest Control Test of Haemaphysalis longicornis
Three petri dishes with a diameter of 9 cm and a height of 1 cm were adhered to the back of a dog. Compound 1-20 of the present invention was dissolved in ethanol so as to be 5.35 mg/mL, and the mixture was added dropwise to the body surface of the dog in the petri dish. The petri dish was sufficiently dried, and then thirty young mites of Haemaphysalis longicornis were released thereto. Each dog was housed in a cage and reared under conditions of 10 hours of light period and 14 hours of dark period at 23° C. Three days after the release, the petri dishes were detached therefrom to measure the numbers of living and dead mites and blood-sucking individuals of young mites, and the mortality of mites was calculated according to the following equation.
Mortality of mites(%)={number of dead mites/(number of survived mites+number of dead mites)}×100

Where [9] appears, read: read-out: % Mortality, Test Example4 Aulacophora femoralis.
Setting [10] is: 72 h, read-out: mortality of larvae.
Setting [11] is: read-out: % Mortality, Test Example7 Frankliniella occidentalis.
Where [12] appears, read: read-out: % Mortality, Test Example8 Trigonotylus caelestialium.

Where two headings read alike, the source gives them in different places.

Here are results for one molecule from patent US20150005347A1, “NITROGEN-CONTAINING HETEROCYCLIC DERIVATIVE HAVING 2-IMINO GROUP AND PEST CONTROL AGENT INCLUDING THE SAME” (MEIJI SEIKA PHARMA CO., LTD., priority 2012, published 2015).

The term mortality denotes the share of the test organisms that died. `FC(F)(F)C(=S)/N=c1\ccccn1Cc1ccc(Cl)nc1` [Compound 1-20, N-[1-((6-chloropyridin-3-yl)methyl)pyridin-2(1H)-ylidene]-2,2,2-trifluoroethanethioamide]: the mortality at 10 ppm was at least 80% in test [1] (72 h, read-out: mortality of adults); at least 80% in test [3] (setting [10]); 100% in test [3] (setting [12]). The mortality at 1.25 ppm in test [1] (setting [9]) was found to be 100%. For the same molecule, the mortality at 5 ppm in test [1] (setting [9]) came to 100%. The results for the mortality at 100 ppm in test [2] (setting [10]) and in test [2] (setting [11]) were at least 80% and 80%, respectively. Moreover, the mortality at 500 ppm in test [2] (setting [10]) was at least 80%. The values for the mortality at 20 ppm in test [2] (setting [11]), in test [4] and in test [5] were 50%, at least 80% and at least 80%, respectively. Besides, the results for the mortality at 50 ppm in test [3] (setting [10]) and in test [3] (setting [12]) were at least 80% and 100%, respectively. In addition, the mortality at 2 ppm in test [3] (setting [12]) was determined as 50%. In test [6] (imidacloprid-resistant), the “insecticidal effects against drug resistant Nilaparvata lugens” value was “high insecticidal effects”. In addition, in test [6] (imidacloprid-resistant vs susceptible), the “mortality of larvae against drug resistant populations compared with susceptible populations of Nilaparvata lugens” value is recorded as “equivalent mortality of larvae”. Further, in test [7], the mortality at 30 ppm came to 100%. In test [8], the mortality at 5350 µg/mL is 100%.
